In patent US20260000656A1, “ANTIFUNGAL AGENTS WITH ENHANCED ACTIVITY IN ACIDIC PH” (Scynexis, Inc., priority 2017, published 2026):
Like-named read-outs stand apart in the source and are kept apart here. Numbered stars: 1 amine (or outer) side, 2 acyl side, 3 side chain; on linkers, the order of the positions; unused ones are H or OH. Bridge positions count the residues as written; N and C are the ends. Square brackets hold non-standard residues; d marks the D form. Peptide text beside a SMILES is read from it. * marks the point of attachment. hTyr(3S-OH,4S-OH,3'-OSO3H) = N[C@H](C(=O)O)[C@H](O)[C@@H](O)c1ccc(O)c(OS(=O)(=O)O)c1; Orn(4R-OH,5R-OH) = O=C([C@H](C[C@@H](O)[C@@H](O)N[*:3])N[*:1])[*:2]; Pro(3S-OH,4S-Me) = C[C@H]1CN[C@H](C(=O)O)[C@H]1O; X1 = CCCCCOc1ccc(-c2cc(-c3ccc(C(=O)*)cc3)no2)cc1; Gln(3R-OH) = NC(=O)C[C@@H](O)[C@H](N)C(=O)O; Hyp = O=C(O)[C@@H]1C[C@@H](O)CN1

How the values were obtained:
C. albicans isolates = assay: Broth microdilution susceptibility (CLSI M27-A3) at different medium pH; type: cell-based, Candida albicans; conditions: for MIC range: 50% inhibition, 10 vaginal isolates; for MIC50 / MIC90 / MIC: Candida albicans, 24 h
Method: (§1) Ten strains each of C. glabrata and C. albicans vaginal isolates were tested. The strains were obtained from recent clinical trial patients with vulvovaginal candidiasis (VVC) prior to treatment. Candida strains were obtained from the Mycology Reference Library (MRL) at Case Western Reserve University School of Medicine, Ohio, United States.
(§2) Susceptibility testing was performed using a broth microdilution method, according to CLSI M27-A3 guidelines (CLSI. 2008. Reference Method for Broth Dilution Antifungal Susceptibility Testing of Yeasts; Approved Standard—Third Edition. Clinical and Laboratory Standards Institute, CLSI document M27-A3). Antifungals and concentrations tested were SCY-078 and micafungin (both at concentrations within the range of 0.015 to 8 μg/ml) and fluconazole (at concentrations within the range of 0.125 to 64 μg/ml). A 0.1-ml C. albicans and C. glabrata inoculum of 0.5-2.5×10^3 blastospores/ml in RPMI 1640 medium was added to each microdilution well. ATCC strains of Candida parapsilosis and Candida krusei QC isolates were also included concurrently to ensure quality control. Antifungal susceptibility testing was carried out for each isolate in RPMI 1640 at pH 7 (to mimic RPMI medium used in testing the susceptibility of yeast by the CLSI M-27A3 document), pH 5.7, and pH 4.5 (to mimic the pH of the vaginal cavity) by adjusting the pH of the media using NaOH or HCl. […] Agents Chemother., 43: 1383-1386 (1999).
(§3) […] SCY-078 powder was manufactured by Avista, Laboratories, NC. Micafungin and fluconazole were sourced from LGM Pharma.

C. glabrata isolates = assay: as above; type: cell-based, Candida glabrata; conditions: for MIC range: 50% inhibition, 10 vaginal isolates; for MIC50 / MIC90 / MIC: Nakaseomyces glabratus, 24 h
Method: as §1, §2, §3

CCCCCOc1ccc(-c2cc(-c3ccc(C(=O)N[C@H]4C[C@@H](O)[C@@H](O)NC(=O)[C@@H]5[C@@H](O)[C@@H](C)CN5C(=O)[C@H]([C@H](O)CC(N)=O)NC(=O)[C@H]([C@H](O)[C@@H](O)c5ccc(O)c(OS(=O)(=O)O)c5)NC(=O)[C@@H]5C[C@@H](O)CN5C(=O)[C@H]([C@@H](C)O)NC4=O)cc3)no2)cc1 [Micafungin, reference compound] (X1-[Orn(4R-OH,5R-OH)]T[Hyp][hTyr(3S-OH,4S-OH,3'-OSO3H)][Gln(3R-OH)][Pro(3S-OH,4S-Me)]; lactam 1-C)
0.25 µg/mL: MIC range (C. albicans isolates; pH 7.0, 24 h) | MIC (C. albicans isolates; pH 4.5, read-out: MIC (50% inhibition), C. albicans MRL 34408, pH 4.5, 24 hours) | MIC (C. albicans isolates; pH 5.72, read-out: MIC (50% inhibition), C. albicans MRL 34449, pH 5.72, 24 hours) | MIC50 (C. albicans isolates; pH 7) | MIC90 (C. albicans isolates; pH 7) | MIC (C. albicans isolates; pH 7, read-out: MIC (50% inhibition), C. albicans MRL 34366, pH 7.0, 24 hours) | MIC (C. albicans isolates; pH 7, read-out: MIC (50% inhibition), C. albicans MRL 34367, pH 7.0, 24 hours) | MIC (C. albicans isolates; pH 7, read-out: MIC (50% inhibition), C. albicans MRL 34372, pH 7.0, 24 hours) | MIC (C. albicans isolates; pH 7, read-out: MIC (50% inhibition), C. albicans MRL 34373, pH 7.0, 24 hours) | MIC (C. albicans isolates; pH 7, read-out: MIC (50% inhibition), C. albicans MRL 34374, pH 7.0, 24 hours) | MIC (C. albicans isolates; pH 7, read-out: MIC (50% inhibition), C. albicans MRL 34385, pH 7.0, 24 hours) | MIC (C. albicans isolates; pH 7, read-out: MIC (50% inhibition), C. albicans MRL 34389, pH 7.0, 24 hours) | MIC (C. albicans isolates; pH 7, read-out: MIC (50% inhibition), C. albicans MRL 34399, pH 7.0, 24 hours) | MIC (C. albicans isolates; pH 7, read-out: MIC (50% inhibition), C. albicans MRL 34408, pH 7.0, 24 hours) | MIC (C. albicans isolates; pH 7, read-out: MIC (50% inhibition), C. albicans MRL 34449, pH 7.0, 24 hours) | MIC range (C. glabrata isolates; pH 4.5, 24 h) | MIC range (C. glabrata isolates; pH 5.72, 24 h) | MIC50 (C. glabrata isolates; pH 4.5) | MIC90 (C. glabrata isolates; pH 4.5) | MIC (C. glabrata isolates; pH 4.5, read-out: MIC (50% inhibition), C. glabrata MRL 32075, pH 4.5, 24 hours) | MIC (C. glabrata isolates; pH 4.5, read-out: MIC (50% inhibition), C. glabrata MRL 32232, pH 4.5, 24 hours) | MIC (C. glabrata isolates; pH 4.5, read-out: MIC (50% inhibition), C. glabrata MRL 32626, pH 4.5, 24 hours) | MIC (C. glabrata isolates; pH 4.5, read-out: MIC (50% inhibition), C. glabrata MRL 32993, pH 4.5, 24 hours) | MIC (C. glabrata isolates; pH 4.5, read-out: MIC (50% inhibition), C. glabrata MRL 33204, pH 4.5, 24 hours) | MIC (C. glabrata isolates; pH 4.5, read-out: MIC (50% inhibition), C. glabrata MRL 33960, pH 4.5, 24 hours) | MIC (C. glabrata isolates; pH 4.5, read-out: MIC (50% inhibition), C. glabrata MRL 33961, pH 4.5, 24 hours) | MIC (C. glabrata isolates; pH 4.5, read-out: MIC (50% inhibition), C. glabrata MRL 34339, pH 4.5, 24 hours) | MIC (C. glabrata isolates; pH 4.5, read-out: MIC (50% inhibition), C. glabrata MRL 34407, pH 4.5, 24 hours) | MIC (C. glabrata isolates; pH 4.5, read-out: MIC (50% inhibition), C. glabrata MRL 34576, pH 4.5, 24 hours) | MIC50 (C. glabrata isolates; pH 5.72) | MIC90 (C. glabrata isolates; pH 5.72) | MIC (C. glabrata isolates; pH 5.72, read-out: MIC (50% inhibition), C. glabrata MRL 32075, pH 5.72, 24 hours) | MIC (C. glabrata isolates; pH 5.72, read-out: MIC (50% inhibition), C. glabrata MRL 32232, pH 5.72, 24 hours) | MIC (C. glabrata isolates; pH 5.72, read-out: MIC (50% inhibition), C. glabrata MRL 32626, pH 5.72, 24 hours) | MIC (C. glabrata isolates; pH 5.72, read-out: MIC (50% inhibition), C. glabrata MRL 32993, pH 5.72, 24 hours) | MIC (C. glabrata isolates; pH 5.72, read-out: MIC (50% inhibition), C. glabrata MRL 33204, pH 5.72, 24 hours) | MIC (C. glabrata isolates; pH 5.72, read-out: MIC (50% inhibition), C. glabrata MRL 33960, pH 5.72, 24 hours) | MIC (C. glabrata isolates; pH 5.72, read-out: MIC (50% inhibition), C. glabrata MRL 33961, pH 5.72, 24 hours) | MIC (C. glabrata isolates; pH 5.72, read-out: MIC (50% inhibition), C. glabrata MRL 34339, pH 5.72, 24 hours) | MIC (C. glabrata isolates; pH 5.72, read-out: MIC (50% inhibition), C. glabrata MRL 34407, pH 5.72, 24 hours) | MIC (C. glabrata isolates; pH 5.72, read-out: MIC (50% inhibition), C. glabrata MRL 34576, pH 5.72, 24 hours) | MIC50 (C. glabrata isolates; pH 7) | MIC (C. glabrata isolates; pH 7, read-out: MIC (50% inhibition), C. glabrata MRL 32075, pH 7.0, 24 hours) | MIC (C. glabrata isolates; pH 7, read-out: MIC (50% inhibition), C. glabrata MRL 32993, pH 7.0, 24 hours) | MIC (C. glabrata isolates; pH 7, read-out: MIC (50% inhibition), C. glabrata MRL 33204, pH 7.0, 24 hours) | MIC (C. glabrata isolates; pH 7, read-out: MIC (50% inhibition), C. glabrata MRL 33961, pH 7.0, 24 hours) | MIC (C. glabrata isolates; pH 7, read-out: MIC (50% inhibition), C. glabrata MRL 34339, pH 7.0, 24 hours) | MIC (C. glabrata isolates; pH 7, read-out: MIC (50% inhibition), C. glabrata MRL 34407, pH 7.0, 24 hours) | MIC (C. glabrata isolates; pH 7, read-out: MIC (50% inhibition), C. glabrata MRL 34576, pH 7.0, 24 hours)
0.063 µg/mL: MIC (C. albicans isolates; pH 5.72, read-out: MIC (50% inhibition), C. albicans MRL 34408, pH 5.72, 24 hours)
0.25 to 0.5 µg/mL: MIC range (C. albicans isolates; pH 4.5, 24 h) | MIC range (C. glabrata isolates; pH 7.0, 24 h)
1 µg/mL: MIC50 (C. albicans isolates; pH 5.72) | MIC90 (C. albicans isolates; pH 5.72) | MIC (C. albicans isolates; pH 5.72, read-out: MIC (50% inhibition), C. albicans MRL 34372, pH 5.72, 24 hours) | MIC (C. albicans isolates; pH 5.72, read-out: MIC (50% inhibition), C. albicans MRL 34373, pH 5.72, 24 hours) | MIC (C. albicans isolates; pH 5.72, read-out: MIC (50% inhibition), C. albicans MRL 34374, pH 5.72, 24 hours) | MIC (C. albicans isolates; pH 5.72, read-out: MIC (50% inhibition), C. albicans MRL 34385, pH 5.72, 24 hours) | MIC (C. albicans isolates; pH 5.72, read-out: MIC (50% inhibition), C. albicans MRL 34389, pH 5.72, 24 hours) | MIC (C. albicans isolates; pH 5.72, read-out: MIC (50% inhibition), C. albicans MRL 34399, pH 5.72, 24 hours)
0.5 µg/mL: MIC50 (C. albicans isolates; pH 4.5) | MIC90 (C. albicans isolates; pH 4.5) | MIC (C. albicans isolates; pH 4.5, read-out: MIC (50% inhibition), C. albicans MRL 34366, pH 4.5, 24 hours) | MIC (C. albicans isolates; pH 4.5, read-out: MIC (50% inhibition), C. albicans MRL 34367, pH 4.5, 24 hours) | MIC (C. albicans isolates; pH 4.5, read-out: MIC (50% inhibition), C. albicans MRL 34372, pH 4.5, 24 hours) | MIC (C. albicans isolates; pH 4.5, read-out: MIC (50% inhibition), C. albicans MRL 34373, pH 4.5, 24 hours) | MIC (C. albicans isolates; pH 4.5, read-out: MIC (50% inhibition), C. albicans MRL 34374, pH 4.5, 24 hours) | MIC (C. albicans isolates; pH 4.5, read-out: MIC (50% inhibition), C. albicans MRL 34385, pH 4.5, 24 hours) | MIC (C. albicans isolates; pH 4.5, read-out: MIC (50% inhibition), C. albicans MRL 34389, pH 4.5, 24 hours) | MIC (C. albicans isolates; pH 4.5, read-out: MIC (50% inhibition), C. albicans MRL 34399, pH 4.5, 24 hours) | MIC (C. albicans isolates; pH 4.5, read-out: MIC (50% inhibition), C. albicans MRL 34449, pH 4.5, 24 hours) | MIC (C. albicans isolates; pH 5.72, read-out: MIC (50% inhibition), C. albicans MRL 34366, pH 5.72, 24 hours) | MIC (C. albicans isolates; pH 5.72, read-out: MIC (50% inhibition), C. albicans MRL 34367, pH 5.72, 24 hours) | MIC90 (C. glabrata isolates; pH 7) | MIC (C. glabrata isolates; pH 7, read-out: MIC (50% inhibition), C. glabrata MRL 32232, pH 7.0, 24 hours) | MIC (C. glabrata isolates; pH 7, read-out: MIC (50% inhibition), C. glabrata MRL 32626, pH 7.0, 24 hours) | MIC (C. glabrata isolates; pH 7, read-out: MIC (50% inhibition), C. glabrata MRL 33960, pH 7.0, 24 hours)
0.063 to 1 µg/mL: MIC range (C. albicans isolates; pH 5.72, 24 h)
